The test system of assay [1] is Rattus norvegicus. In words: Inhibition of rat passive cutaneous anaphylaxis following i.p. administration. The conditions noted are these: ip. Type of assay: functional.
Assay [2] concerns Rattus norvegicus. Description: Inhibition of rat passive cutaneous anaphylaxis following p.o. administration. To be noted: po.
The subject of assay [3] is Rattus norvegicus. Description: Inhibition of rat passive cutaneous anaphylaxis following p.o. administration; Not active.

Data on 20 molecules can be found in ChEMBL document CHEMBL1121892, “5-Tetrazolecarboxamides and their salts: new orally active antiallergy agents” (1981).

The source made the active and inactive calls. The rule behind the calls is not given here. Some results are limits rather than exact numbers.

What is called ED50 is the dose at which the effect has come halfway, by size or by number of responders. In the case of `N#Cc1ccccc1NC(=O)c1nnn[n-]1.[Na+]`, the ED50 in the assay on Rattus norvegicus [1] stood at 0.5 mg/kg; with Rattus norvegicus [2], 10 mg/kg. In the same order, the values of `COc1cccc(NC(=O)c2nn[nH]n2)c1C(N)=O` are 0.1 mg/kg and 0.2 mg/kg. For the molecule `CN1CCN(c2cccc(NC(=O)c3nn[nH]n3)c2C#N)CC1`, the ED50 in the assay with Rattus norvegicus [1] stood at 0.02 mg/kg; in the assay on Rattus norvegicus [2] it was 0.2 mg/kg.

In the case of `O=C(Nc1cccc(NC(=O)c2nnn[n-]2)n1)c1nnn[n-]1.[Na+].[Na+]`, the results for the ED50 in the assay with Rattus norvegicus [1] and with Rattus norvegicus [2] were 0.02 mg/kg and 0.1 mg/kg, respectively. `O=C(Nc1cc(C(F)(F)F)cc(NC(=O)c2nnn[n-]2)c1Cl)c1nnn[n-]1.[Na+].[Na+]` displayed an ED50 in the assay on Rattus norvegicus [1] of 1.6 mg/kg.

`CN(C)c1cccc(NC(=O)c2nnn[n-]2)c1C(N)=O.[Na+]`: the ED50 stood at 0.9 mg/kg in the assay with Rattus norvegicus [1] and 34 mg/kg with Rattus norvegicus [2]. As to `N#Cc1c(NC(=O)c2nn[nH]n2)cccc1N1CCOCC1`, the ED50 in the assay with Rattus norvegicus [1] turned out to be 0.5 mg/kg; in the assay with Rattus norvegicus [2] it was 10 mg/kg. In the same order, the values of `N#Cc1cc(NC(=O)c2nnn[n-]2)cc(NC(=O)c2nnn[n-]2)c1.[Na+].[Na+]` are 0.04 mg/kg and 1 mg/kg. As for `NC(=O)c1c(NC(=O)c2nnn[n-]2)cccc1N1CCCCC1.[Na+]`, the ED50 in the assay on Rattus norvegicus [1] worked out at 0.8 mg/kg; in the assay with Rattus norvegicus [2] it was 46 mg/kg. Take `O=C([O-])c1cc(=O)c2c(OCC(O)COc3cccc4oc(C(=O)[O-])cc(=O)c34)cccc2o1.[Na+].[Na+]` [CROMOLYN SODIUM]: the ED50 result in the assay with Rattus norvegicus [3] was “inactive”. The same molecule gave an ED50 in the assay on Rattus norvegicus [1] of 8 mg/kg. The molecule `NC(=O)c1c(NC(=O)c2nnn[n-]2)cccc1N1CCOCC1.[Na+]` returned an ED50 in the assay with Rattus norvegicus [1] of 0.2 mg/kg. Consider `O=C(Nc1ccccn1)c1nnn[n-]1.[Na+]`, for which the ED50 was 0.31 mg/kg in the assay on Rattus norvegicus [1] and 0.68 mg/kg with Rattus norvegicus [2]. On to `N#Cc1cc(NC(=O)c2nnn[n-]2)c(Cl)c(NC(=O)c2nnn[n-]2)c1.[Na+].[Na+]`, for which it took a dose of 0.3 mg/kg to reach the 50% effect level in the assay with Rattus norvegicus [1] (ED50).

Molecule `CCOC(=O)C(=O)Nc1cc(C#N)cc(NC(=O)c2nn[nH]n2)c1` yielded an ED50 in the assay with Rattus norvegicus [1] of 0.2 mg/kg. Consider `CCNc1cccc(NC(=O)c2nnn[n-]2)c1C#N.[Na+]`, for which the ED50 in the assay on Rattus norvegicus [1] was 1.1 mg/kg; in the assay with Rattus norvegicus [2] it was 2.6 mg/kg.

`NC(=O)c1cc(NC(=O)c2nnn[n-]2)cc(NC(=O)c2nnn[n-]2)c1.[Na+].[Na+]`: the figures for the ED50 in the assay with Rattus norvegicus [1] and in the assay on Rattus norvegicus [2] were 0.02 mg/kg and over 10 mg/kg, respectively. The like results for `CN(C)c1cccc(NC(=O)c2nnn[n-]2)c1C#N.[Na+]` were, in that order, 2 mg/kg and 1.7 mg/kg. In the same order, the values of `CN1CCN(c2cccc(NC(=O)c3nn[nH]n3)c2C(N)=O)CC1` are 0.01 mg/kg and 2.3 mg/kg. The like results for `N#Cc1c(NC(=O)c2nnn[n-]2)cccc1N1CCCCC1.[Na+]` were, in that order, 0.4 mg/kg and 7 mg/kg. Consider `O=C(Nc1cc(Cl)cc(NC(=O)c2nnn[n-]2)n1)c1nnn[n-]1.[Na+].[Na+]`, for which the ED50 in the assay with Rattus norvegicus [1] turned out to be 0.2 mg/kg; with Rattus norvegicus [2], 2 mg/kg.
